Source: publication PMC10762035, “Molecular basis of human trace amine-associated receptor 1 activation” (Nature Communications, 2024)
Changes are numbered by the printed parent chain. Several values for one entry are separate records, joined by “and”; a condition that tells them apart may be missing. Equal values may be shown once. Read-outs that look alike come from different tables or passages of the source.

Assays:
hTA1 b2N = target: T1, hTA1 b2N (Homo sapiens, UniProt Q96RJ0); experiment: GloSensor cAMP accumulation assay, b2N construct; format: cell-based; details: b2N; n=2; read-out: Span ± SEM (Emax normalized to β-PEA)
T1 construct: read by me as the first 25 residues of β2AR (N); expressed in transfected cells; host or cells: HEK293T
T1 sequence (Q96RJ0 with tags, fused parts or gaps): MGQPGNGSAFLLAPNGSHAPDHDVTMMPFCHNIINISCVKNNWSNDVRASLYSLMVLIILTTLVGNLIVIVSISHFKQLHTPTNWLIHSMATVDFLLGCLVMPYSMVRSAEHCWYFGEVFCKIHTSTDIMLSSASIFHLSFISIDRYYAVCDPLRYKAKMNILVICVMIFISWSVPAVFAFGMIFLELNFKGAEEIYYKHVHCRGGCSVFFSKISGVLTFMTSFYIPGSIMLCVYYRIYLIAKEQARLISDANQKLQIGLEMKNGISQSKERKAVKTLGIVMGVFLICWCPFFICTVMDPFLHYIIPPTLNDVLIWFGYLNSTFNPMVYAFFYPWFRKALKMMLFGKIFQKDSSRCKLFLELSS

hTA1 C178S = target: T2, hTA1 C178S (Homo sapiens, UniProt Q96RJ0, C178S); experiment: GloSensor cAMP accumulation assay, C178S mutant; format: cell-based; details: for C178S - Normalized Luminescence Counts (N=2): log[Compound], single replicates
T2 construct: expressed in transfected cells; host or cells: HEK293T
T2 sequence (Q96RJ0 1-339 C178S): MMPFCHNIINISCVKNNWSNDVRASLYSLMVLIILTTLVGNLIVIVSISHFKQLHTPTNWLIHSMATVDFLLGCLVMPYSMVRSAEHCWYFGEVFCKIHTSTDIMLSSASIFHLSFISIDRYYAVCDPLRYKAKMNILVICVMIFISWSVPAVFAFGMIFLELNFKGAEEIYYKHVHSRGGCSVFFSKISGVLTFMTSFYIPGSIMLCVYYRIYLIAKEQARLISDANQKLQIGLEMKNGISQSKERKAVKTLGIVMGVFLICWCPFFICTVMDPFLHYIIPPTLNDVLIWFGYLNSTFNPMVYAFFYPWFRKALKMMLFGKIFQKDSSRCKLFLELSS

hTA1 C88/178S = target: T3, hTA1 C88/178S (Homo sapiens, UniProt Q96RJ0, C178S/C88S); experiment: GloSensor cAMP accumulation assay, C88S/C178S double mutant; format: cell-based; details: for Normalized Luminescence Counts (N=2): log[Compound], single replicate values
T3 construct: expressed in transfected cells; host or cells: HEK293T
T3 sequence (Q96RJ0 1-339 C88S/C178S): T2 sequence (Q96RJ0 1-339 C178S) with C88S

hTA1 W264F = target: T4, hTA1 W264F (Homo sapiens, UniProt Q96RJ0, W264F); experiment: GloSensor cAMP accumulation assay, W264F mutant; format: cell-based;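 also: cells transiently transfected with receptor plus GloSensor, luminescence read 30 min after agonist addition at room temperature, concentration-response curves fitted by log(agonist) vs response regression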
T4 construct: expressed in transfected cells; host or cells: HEK293T
T4 sequence (Q96RJ0 1-339 W264F): T2 sequence (Q96RJ0 1-339 C178S) with S178C, W264F

hTA1 T194A = target: T5, hTA1 T194A (Homo sapiens, UniProt Q96RJ0, T194A); experiment: GloSensor cAMP accumulation assay, T194A mutant; details: for cAMP accumulation response, individual replicate values of the concentration-response curve: hTA1 T194A, log[Agonist], Supplementary Figure 5 source data
T5 sequence (Q96RJ0 1-339 T194A): T2 sequence (Q96RJ0 1-339 C178S) with S178C, T194A

[1] = C88S, C178S, each row is one independent experiment, 3 replicates

Compound: CCc1[nH]nc(C(=O)Nc2ccc([C@H]3CNCCO3)cc2)c1C [ralmitaront]
- Emax (hTA1 b2N): 82.5 ± 4.39%
- ΔpEC50 values (each mutant value - WT average), Mean (hTA1 C178S; C178S, each row one experiment (N=2), 3 replicates): -0.4487 and -0.0445
- Emax (hTA1 C178S; C178S, n=2, read-out: Span ± SEM (Emax normalized to β-PEA)): 69.5 ± 2.9%
- Emax (hTA1 C178S; C178S, relative to β-PEA, read-out: Emax): 69.5%
- Emax values, Mean (hTA1 C178S; C178S, β-PEA = 100, each row one experiment (N=2), 3 replicates): 72.4383
- Emax (hTA1 C178S; C178S, β-PEA = 100, each row one experiment (N=2), 3 replicates, read-out: Emax values, Mean): 66.6%
- C178S - Normalized Luminescence Counts (N=2) (hTA1 C178S; M = -5): 73.8012 and 62.4927 and 60.9506 and 66.8043 and 64.022 and 61.0303
- C178S - Normalized Luminescence Counts (N=2) (hTA1 C178S; M = -5.522): 57.6328 and 63.2871 and 59.3151 and 75.9888 and 75.2109 and 62.2569
- C178S - Normalized Luminescence Counts (N=2) (hTA1 C178S; M = -6): 43.2869 and 48.3804 and 55.2496 and 74.2835 and 69.4968
- C178S - Normalized Luminescence Counts (N=2) (hTA1 C178S; M = -6.522): 30.9035 and 28.8942 and 35.67 and 44.4265 and 49.1234 and 56.9916
- C178S - Normalized Luminescence Counts (N=2) (hTA1 C178S; M = -7): 14.8753 and 16.3239 and 23.7072 and 27.2542 and 34.494 and 27.6431
- C178S - Normalized Luminescence Counts (N=2) (hTA1 C178S; M = -7.522): 4.642 and 7.866 and 7.3986 and 13.4924 and 12.7145 and 13.5821
- C178S - Normalized Luminescence Counts (N=2) (hTA1 C178S; M = -8): 1.277 and 2.445 and 2.959 and 5.594 and 6.073 and 4.936
- C178S - Normalized Luminescence Counts (N=2) (hTA1 C178S; M = -8.522): -0.2183 and 0.7163 and 2.0247 and 0.7179 and 1.526 and 2.842
- C178S - Normalized Luminescence Counts (N=2) (hTA1 C178S; M = -9): -0.3585 and 0.1555 and -0.03139 and 0.4785 and 0.3289 and 2.214
- C178S - Normalized Luminescence Counts (N=2) (hTA1 C178S; M = -9.522): -1.433 and 1.137 and -0.6389 and -0.0001415 and -0.6284 and -0.3292
- C178S - Normalized Luminescence Counts (N=2) (hTA1 C178S; M = -10): -1.1529 and -1.2 and -1.106 and 0.05969 and -0.9575 and -1.5259
- C178S - Normalized Luminescence Counts (N=2) (hTA1 C178S; M = -10.522): -0.5454 and -0.2183 and -0.8258 and -2.334 and -1.855 and -2.154
- C178S - Normalized Luminescence Counts (N=2) (hTA1 C178S; M = -11): -0.3585 and -0.2183 and -0.4987 and 0.6281 and 0.3589 and 0.4785
- C178S - Normalized Luminescence Counts (N=2) (hTA1 C178S; M = -11.522): -0.3585 and -0.07812 and 0.1555 and 0.5384 and -0.08989 and -0.419
- C178S - Normalized Luminescence Counts (N=2) (hTA1 C178S; M = -12): -0.966 (2×) and -0.3585 and -0.8079 and -2.005 and -0.9874
- C178S - Normalized Luminescence Counts (N=2) (hTA1 C178S; M = -12.522): 1.09 and -0.2183 and -0.8725 and 0.3888 and -1.137 and -2.364
- ΔEmax values (each mutant value - WT average), Mean (hTA1 C88/178S; [1]): 18.4827 and 32.9242
- ΔpEC50 values (each mutant value - WT average), Mean (hTA1 C88/178S; [1]): -0.118 and 0.09825
- Normalized Luminescence Counts (N=2) (hTA1 C88/178S; C88S, C178S, M = -5): 55.2389 and 58.8007 and 61.0622 and 66.9199 and 93.0497 and 63.144
- Normalized Luminescence Counts (N=2) (hTA1 C88/178S; C88S, C178S, M = -5.522): 59.988 and 60.3272 and 50.3202 and 55.743 and 72.6594 and 83.3832
- Normalized Luminescence Counts (N=2) (hTA1 C88/178S; C88S, C178S, M = -6): 50.4332 and 47.6629 and 57.5569 and 67.8262 and 71.7532 and 58.9149
- Normalized Luminescence Counts (N=2) (hTA1 C88/178S; C88S, C178S, M = -6.522): 36.7513 and 35.5075 and 46.8149 and 59.519 and 56.6493 and 50.3056
- Normalized Luminescence Counts (N=2) (hTA1 C88/178S; C88S, C178S, M = -7): 22.2779 and 25.1613 and 25.3874 and 33.9934 and 41.0922 and 21.3061
- Normalized Luminescence Counts (N=2) (hTA1 C88/178S; C88S, C178S, M = -7.522): 14.9281 and 10.2921 and 11.3663 and 21.004 and 25.2331 and 32.0299
- Normalized Luminescence Counts (N=2) (hTA1 C88/178S; C88S, C178S, M = -8): 4.13 and 3.564 and 4.525 and 7.562 and 10.4313 and 11.0354
- Normalized Luminescence Counts (N=2) (hTA1 C88/178S; C88S, C178S, M = -8.522): 1.1331 and 2.8292 and 0.7939 and 5.598 and 0.6137 and 2.8793
- Normalized Luminescence Counts (N=2) (hTA1 C88/178S; C88S, C178S, M = -9): 0.3981 and 0.4547 and 0.9635 and -0.2925 and -0.1415 and 0.7648
- Normalized Luminescence Counts (N=2) (hTA1 C88/178S; C88S, C178S, M = -9.522): -0.2803 and 1.19 and 0.172 and -1.501 and -1.35 and -2.105
- Normalized Luminescence Counts (N=2) (hTA1 C88/178S; C88S, C178S, M = -10): 0.0589 and 1.359 and 0.002362 and -0.8967 and -0.2925 and -1.35
- Normalized Luminescence Counts (N=2) (hTA1 C88/178S; C88S, C178S, M = -10.522): 1.077 and 0.1154 and 0.002362 and -1.501 and -1.199 and -1.048
- Normalized Luminescence Counts (N=2) (hTA1 C88/178S; C88S, C178S, M = -11): -0.2238 and 0.172 and 0.7373 and -1.35 and -0.1415 and -1.048
- Normalized Luminescence Counts (N=2) (hTA1 C88/178S; C88S, C178S, M = -11.522): 0.0589 and 0.7373 and 0.5112 and -2.105 and 0.7648 and -0.8967
- Normalized Luminescence Counts (N=2) (hTA1 C88/178S; C88S, C178S, M = -12): 0.5112 and 0.7939 and 5.317 and -0.4436 and -0.5946 and -1.048
- Normalized Luminescence Counts (N=2) (hTA1 C88/178S; C88S, C178S, M = -12.522): 0.7373 (2×) and 1.416 and -1.199 and -0.7456 and -2.105
- Emax values, Mean (hTA1 C88/178S; C88S, C178S, normalized (β-PEA = 100), each row is one independent experiment, 3 replicates): 58.5968 and 73.0383
- Emax (hTA1 C88/178S; read-out: Span ± SEM (Emax normalized to β-PEA)): 65.8 ± 7.22%
- ΔEmax values (each mutant value - WT average) (hTA1 W264F; W246F mutant (so in the source) minus WT average): -7.264
- Emax values, Mean (hTA1 W264F; W246F mutant (so in the source), β-PEA = 100, each line an independent experiment, 3 replicates): 47.4013
- Emax (hTA1 W264F; W246F mutant (so in the source), β-PEA = 100, each line an independent experiment, 3 replicates, read-out: Emax values (Mean)): 32.8%
- Emax (hTA1 W264F; W264F, n=2, read-out: Span ± SEM (Emax normalized to β-PEA)): 40.1 ± 7.28%
- Emax values, Mean (hTA1 T194A; T149A (so in the source), single experiments (3 replicates each), β-PEA = 100): 41.3499 and 73.0935 and 32.2156
- cAMP accumulation response, individual replicate values of the concentration-response curve (hTA1 T194A; M = -7.522): 13.1191 and 7.983 and 9.958 and 19.2742 and 14.6569 and 26.511
- cAMP accumulation response, individual replicate values of the concentration-response curve (hTA1 T194A; M = -8): 2.846 and 8.97 and 3.241 and 12.5702 and 15.1897 and 10.4391
- cAMP accumulation response, individual replicate values of the concentration-response curve (hTA1 T194A; M = -8.522): 0.8706 and -0.5123 and 0.673 and 2.359 and 3.025 and 2.8472
- cAMP accumulation response, individual replicate values of the concentration-response curve (hTA1 T194A; M = -9): -1.105 and -0.3148 and -1.895 and 1.693 and 2.048 and 2.27
- cAMP accumulation response, individual replicate values of the concentration-response curve (hTA1 T194A; M = -9.522): -1.895 and -1.698 and -1.5 and -0.7934 and 0.4941 and -0.3494
- cAMP accumulation response, individual replicate values of the concentration-response curve (hTA1 T194A; M = -10): -0.9074 and -1.105 (2×) and -0.2606 and -0.1274 and 0.9825
- cAMP accumulation response, individual replicate values of the concentration-response curve (hTA1 T194A; M = -10.522): -2.29 and -1.105 (2×) and -0.971 and -0.5714 and -0.1274
- cAMP accumulation response, individual replicate values of the concentration-response curve (hTA1 T194A; M = -11): -1.105 (2×) and -0.5123 and -0.1274 and -0.527 and -0.3938
- cAMP accumulation response, individual replicate values of the concentration-response curve (hTA1 T194A; M = -11.522): -1.5 and -0.9074 and -1.895 and -0.4826 and 0.2722 and -0.3494
- cAMP accumulation response, individual replicate values of the concentration-response curve (hTA1 T194A; M = -12): -1.105 (2×) and -0.5123 and -0.8378 and -0.9266 and 0.05017
- cAMP accumulation response, individual replicate values of the concentration-response curve (hTA1 T194A; M = -12.522): -0.5123 and -1.105 (2×) and -0.527 and 0.05017 and -0.6158
- Emax (hTA1 T194A; read-out: Span ± SEM (Emax normalized to β-PEA), T194A): 48.9 ± 20.4%
